Measurements as given in ChEMBL document CHEMBL3044598, “Study of inhibitory effects and action mechanism of the novel fungicide pyrimorph against Phytophthora capsici” (J Agric Food Chem, 2010).
Converted amounts (≈) assume the structure as drawn. The source made the active and inactive calls. No cut-off for these calls is given here.

Legend:
Phytophthora capsici [1] = assay: Inhibition of sporangia formation of Phytophthora capsici treated 240 min after sporangia incubation followed by compound exposure for 60 min by light microscopy; format: functional, organism-based
Phytophthora capsici [2] = assay: Inhibition of cytospore germination of Phytophthora capsici at 2 ug/mL after 24 hr; format: functional
Phytophthora capsici [3] = assay: Inhibition of cytospore germination of Phytophthora capsici at 1 ug/mL after 24 hr; format: functional
Phytophthora capsici [4] = assay: Inhibition of cytospore germination of Phytophthora capsici at 0.2 ug/mL after 24 hr; format: functional
Phytophthora capsici [5] = assay: Inhibition of cytospore germination of Phytophthora capsici at 0.5 ug/mL after 24 hr; format: functional
Phytophthora capsici [6] = assay: Inhibition of cytospore germination of Phytophthora capsici at 0.1 ug/mL after 24 hr; format: functional
Phytophthora capsici [7] = assay: Inhibition of sporangia formation of Phytophthora capsici at 2 ug/mL treated 240 min after sporangia incubation followed by compound exposure for 60 min by light microscopy; format: functional
Phytophthora capsici [8] = assay: Inhibition of sporangia formation of Phytophthora capsici at 1 ug/mL treated 240 min after sporangia incubation followed by compound exposure for 60 min by light microscopy; format: functional
Phytophthora capsici [9] = assay: Inhibition of sporangia formation of Phytophthora capsici at 0.5 ug/mL treated 240 min after sporangia incubation followed by compound exposure for 60 min by light microscopy; format: functional
Phytophthora capsici [10] = assay: Inhibition of sporangia formation of Phytophthora capsici at 0.2 ug/mL treated 240 min after sporangia incubation followed by compound exposure for 60 min by light microscopy; format: functional
Phytophthora capsici [11] = assay: Inhibition of sporangia formation of Phytophthora capsici at 0.1 ug/mL treated 240 min after sporangia incubation followed by compound exposure for 60 min by light microscopy; format: functional
Phytophthora capsici [12] = assay: Inhibition of mycelial radial growth of Phytophthora capsici incubated at 25 degC for 5 days; format: functional, organism-based; conditions: 120 h
Phytophthora capsici [13] = assay: Inhibition of mycelial radial growth of Phytophthora capsici at 5 ug/mL incubated at 25 degC for 5 days in presence of 5 ug/mL ATP; format: functional; conditions: 120 h
Phytophthora capsici [14] = assay: Inhibition of mycelial radial growth of Phytophthora capsici at 5 ug/mL incubated at 25 degC for 5 days in presence of 1 ug/mL ATP; format: functional
Phytophthora capsici [15] = assay: Inhibition of mycelial radial growth of Phytophthora capsici at 10 ug/mL incubated at 25 degC for 5 days in absence of 5 ug/mL ATP; format: functional
Phytophthora capsici [16] = assay: Inhibition of mycelial radial growth of Phytophthora capsici at 10 ug/mL incubated at 25 degC for 5 days in presence of 5 ug/mL ATP; format: functional
Phytophthora capsici [17] = assay: Inhibition of mycelial radial growth of Phytophthora capsici at 10 ug/mL incubated at 25 degC for 5 days in presence of 1 ug/mL ATP; format: functional
Phytophthora capsici [18] = assay: Inhibition of mycelial radial growth of Phytophthora capsici at 5 ug/mL incubated at 25 degC for 5 days; format: functional; conditions: 120 h
Phytophthora capsici [19] = assay: Inhibition of mycelial radial growth of Phytophthora capsici at 2 ug/mL incubated at 25 degC for 5 days; format: functional; conditions: 120 h
Phytophthora capsici [20] = assay: Induction of morphological changes in Phytophthora capsici assessed as distortion of vacuoles and vesicles in dense bodies at 10 ug/mL by transmission electron microscopy; format: functional, organism-based
Phytophthora capsici [21] = assay: Induction of morphological changes in Phytophthora capsici assessed as increase in dense bodies at 10 ug/mL by transmission electron microscopy; format: functional, organism-based
Phytophthora capsici [22] = assay: Induction of morphological changes in Phytophthora capsici assessed as induction of distortion of cell wall at 10 ug/mL by transmission electron microscopy; format: functional, organism-based
Phytophthora capsici [23] = assay: Induction of morphological changes in Phytophthora capsici assessed as induction of multilayered cell wall development at 10 ug/mL by transmission electron microscopy; format: functional, organism-based
Phytophthora capsici [24] = assay: Induction of morphological changes in Phytophthora capsici assessed as reduction in number of vesicles at 5 ug/mL by transmission electron microscopy; format: functional, organism-based
Phytophthora capsici [25] = assay: Inhibition of mycelial radial growth of Phytophthora capsici at 1 ug/mL incubated at 25 degC for 5 days; format: functional; conditions: 120 h
Phytophthora capsici [26] = assay: Inhibition of mycelial radial growth of Phytophthora capsici at 0.6 ug/mL incubated at 25 degC for 5 days; format: functional; conditions: 120 h
Phytophthora capsici [27] = assay: Induction of morphological changes in Phytophthora capsici assessed as increase in extensive cell wall proliferation at 5 ug/mL by transmission electron microscopy; format: functional, organism-based
Phytophthora capsici [28] = assay: Induction of morphological changes in Phytophthora capsici assessed as increase in abnormal mycelial configurations at 10 ug/mL by scanning electron microscopy; format: functional, organism-based
Phytophthora capsici [29] = assay: Induction of morphological changes in Phytophthora capsici assessed as increase in mycelial ramifications at 10 ug/mL by scanning electron microscopy; format: functional, organism-based
Phytophthora capsici [30] = assay: Induction of morphological changes in Phytophthora capsici assessed as increase in mycelial colony density at 10 ug/mL by scanning electron microscopy; format: functional, organism-based
Phytophthora capsici [31] = assay: Induction of morphological changes in Phytophthora capsici assessed as abnormal mycelial growth at 10 ug/mL by scanning electron microscopy; format: functional, organism-based
Phytophthora capsici [32] = assay: Induction of morphological changes in Phytophthora capsici assessed as increase in mycelial colony density at 5 ug/mL by scanning electron microscopy; format: functional, organism-based
Phytophthora capsici [33] = assay: Induction of morphological changes in Phytophthora capsici assessed as abnormal mycelial growth at 5 ug/mL by scanning electron microscopy; format: functional, organism-based
Phytophthora capsici [34] = assay: Inhibition of intact mycelial respiration of Phytophthora capsici assessed as superpose rate of oxygen consumption at 100 ug/mL in presence of sodium phosphate; format: functional; set-up: scale not given: the % may be the effect or the level left
Phytophthora capsici [35] = assay: Inhibition of intact mycelial respiration of Phytophthora capsici assessed as superpose rate of oxygen consumption at 100 ug/mL in presence of iodoacetic acid; format: functional; set-up: scale not given: the % may be the effect or the level left
Phytophthora capsici [36] = assay: Inhibition of intact mycelial respiration of Phytophthora capsici assessed as superpose rate of oxygen consumption at 100 ug/mL in presence of malonic acid; format: functional; set-up: scale not given: the % may be the effect or the level left
Phytophthora capsici [37] = assay: Inhibition of intact mycelial respiration of Phytophthora capsici at 100 ug/mL in presence of sodium phosphate; format: functional
Phytophthora capsici [38] = assay: Inhibition of intact mycelial respiration of Phytophthora capsici at 100 ug/mL in presence of iodoacetic acid; format: functional
Phytophthora capsici [39] = assay: Inhibition of intact mycelial respiration of Phytophthora capsici at 100 ug/mL in presence of malonic acid; format: functional
Phytophthora capsici [40] = assay: Inhibition of intact mycelial respiration of Phytophthora capsici at 100 ug/mL; format: functional
Phytophthora capsici [41] = assay: Inhibition of zoospore release of Phytophthora capsici at 100 ug/mL; format: functional
Phytophthora capsici [42] = assay: Inhibition of zoospore release of Phytophthora capsici at 50 ug/mL; format: functional
Phytophthora capsici [43] = assay: Inhibition of zoospore release of Phytophthora capsici at 25 ug/mL; format: functional
Phytophthora capsici [44] = assay: Inhibition of zoospore release of Phytophthora capsici at 6 ug/mL; format: functional
Phytophthora capsici [45] = assay: Inhibition of zoospore release of Phytophthora capsici at 12 ug/mL; format: functional
Phytophthora capsici [46] = assay: Inhibition of zoospore release of Phytophthora capsici; format: functional, organism-based
Phytophthora capsici [47] = assay: Inhibition of cytospore germination of Phytophthora capsici after 24 hr; format: functional, organism-based
Phytophthora capsici [48] = assay: Inhibition of intact mycelial respiration of Phytophthora capsici assessed as superpose rate of oxygen consumption at 10 ug/mL in presence of sodium phosphate; format: functional; set-up: scale not given: the % may be the effect or the level left
Phytophthora capsici [49] = assay: Inhibition of intact mycelial respiration of Phytophthora capsici assessed as superpose rate of oxygen consumption at 10 ug/mL in presence of iodoacetic acid; format: functional; set-up: scale not given: the % may be the effect or the level left
Phytophthora capsici [50] = assay: Inhibition of intact mycelial respiration of Phytophthora capsici assessed as superpose rate of oxygen consumption at 10 ug/mL in presence of malonic acid; format: functional; set-up: scale not given: the % may be the effect or the level left
Phytophthora capsici [51] = assay: Inhibition of intact mycelial respiration of Phytophthora capsici at 10 ug/mL in presence of sodium phosphate; format: functional
Phytophthora capsici [52] = assay: Inhibition of intact mycelial respiration of Phytophthora capsici at 10 ug/mL in presence of iodoacetic acid; format: functional
Phytophthora capsici [53] = assay: Inhibition of intact mycelial respiration of Phytophthora capsici at 10 ug/mL in presence of malonic acid; format: functional
Phytophthora capsici [54] = assay: Inhibition of intact mycelial respiration of Phytophthora capsici at 10 ug/mL; format: functional

SMILES: CC(C)(C)c1ccc(/C(=C/C(=O)N2CCOCC2)c2ccnc(Cl)c2)cc1 [PYRIMORPH]
- EC50 (Phytophthora capsici [1]): 0.17 µg/mL (≈ 0.442 µM)
- EC90 (Phytophthora capsici [1]): 3.21 µg/mL (≈ 8.34 µM)
- inhibition at 2 µg/mL (Phytophthora capsici [2]): 84%
- inhibition at 1 µg/mL (Phytophthora capsici [3]): 71%
- inhibition at 0.2 µg/mL (Phytophthora capsici [4]): 56%
- inhibition at 0.5 µg/mL (Phytophthora capsici [5]): 68%
- inhibition at 0.1 µg/mL (Phytophthora capsici [6]): 54%
- inhibition at 2 µg/mL (Phytophthora capsici [7]): 85%
- inhibition at 1 µg/mL (Phytophthora capsici [8]): 75%
- inhibition at 0.5 µg/mL (Phytophthora capsici [9]): 66%
- inhibition at 0.2 µg/mL (Phytophthora capsici [10]): 57%
- inhibition at 0.1 µg/mL (Phytophthora capsici [11]): 52%
- EC50 (Phytophthora capsici [12]): 1.84 µg/mL (≈ 4.78 µM)
- EC90 (Phytophthora capsici [12]): 5.71 µg/mL (≈ 14.8 µM)
- inhibition at 5 µg/mL (Phytophthora capsici [13]): 72%
- inhibition (INH) (Phytophthora capsici [14]): 75%
- inhibition (INH) (Phytophthora capsici [15]): 98%
- inhibition (INH) (Phytophthora capsici [16]): 77%
- inhibition (INH) (Phytophthora capsici [17]): 78.1%
- inhibition at 5 µg/mL (Phytophthora capsici [18]): 81%
- inhibition at 2 µg/mL (Phytophthora capsici [19]): 57%
- Activity (Phytophthora capsici [20]): Active
- Activity (Phytophthora capsici [21]): Active
- Activity (Phytophthora capsici [22]): Active
- Activity (Phytophthora capsici [23]): Active
- Activity (Phytophthora capsici [24]): Active
- inhibition at 1 µg/mL (Phytophthora capsici [25]): 28%
- inhibition at 0.6 µg/mL (Phytophthora capsici [26]): 9%
- Activity (Phytophthora capsici [27]): Active
- Activity (Phytophthora capsici [28]): Active
- Activity (Phytophthora capsici [29]): Active
- Activity (Phytophthora capsici [30]): Active
- Activity (Phytophthora capsici [31]): Active
- Activity (Phytophthora capsici [32]): Active
- Activity (Phytophthora capsici [33]): Active
- Activity (Phytophthora capsici [34]): 5.22%
- Activity (Phytophthora capsici [35]): 32.61%
- Activity (Phytophthora capsici [36]): 18.31%
- inhibition at 100 µg/mL (Phytophthora capsici [37]): 44%
- inhibition at 100 µg/mL (Phytophthora capsici [38]): 60.2%
- inhibition at 100 µg/mL (Phytophthora capsici [39]): 51.8%
- inhibition at 100 µg/mL (Phytophthora capsici [40]): 41%
- inhibition at 100 µg/mL (Phytophthora capsici [41]): 95%
- inhibition at 50 µg/mL (Phytophthora capsici [42]): 94%
- inhibition at 25 µg/mL (Phytophthora capsici [43]): 80%
- inhibition at 6 µg/mL (Phytophthora capsici [44]): 58%
- inhibition at 12 µg/mL (Phytophthora capsici [45]): 65%
- EC50 (Phytophthora capsici [46]): 4.92 µg/mL (≈ 12.8 µM)
- EC90 (Phytophthora capsici [46]): 45.7 µg/mL (≈ 119 µM)
- EC50 (Phytophthora capsici [47]): 0.09 µg/mL (≈ 0.234 µM)
- EC90 (Phytophthora capsici [47]): 8.16 µg/mL (≈ 21.2 µM)

SMILES: CO/C=C(/C(=O)OC)c1ccccc1Oc1cc(Oc2ccccc2C#N)ncn1 [AZOXYSTROBIN]
- Activity (Phytophthora capsici [48]): 51.36%
- Activity (Phytophthora capsici [49]): 53.27%
- Activity (Phytophthora capsici [50]): 9.02%
- inhibition at 10 µg/mL (Phytophthora capsici [51]): 86.2%
- inhibition at 10 µg/mL (Phytophthora capsici [52]): 86.8%
- inhibition at 10 µg/mL (Phytophthora capsici [53]): 74.2%
- inhibition at 10 µg/mL (Phytophthora capsici [54]): 71.7%

SMILES: COc1ccc(C(=CC(=O)N2CCOCC2)c2ccc(Cl)cc2)cc1OC [DIMETHOMORPH]
- Activity (Phytophthora capsici [34]): 44.06%
- Activity (Phytophthora capsici [35]): 51.62%
- Activity (Phytophthora capsici [36]): 49.91%
- inhibition at 100 µg/mL (Phytophthora capsici [37]): 55%
- inhibition at 100 µg/mL (Phytophthora capsici [38]): 61.1%
- inhibition at 100 µg/mL (Phytophthora capsici [39]): 59.6%
- inhibition at 100 µg/mL (Phytophthora capsici [40]): 19.4%
